{"source": "the supplement of paper PMC10307832", "assay_in_all_cases": "relative viability (nuclei count vs DMSO), 5 days (fraction); higher = more cells survive", "key": {"[1]": {"test_system": "HCC-15", "procedure,_shortened": "(§1)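 Medians of duplicate plates are given as relative viability. That measure is the nuclei count in treated wells divided by the count in vehicle wells. Counts were taken on 4× images of lung cancer cell lines in 1536-well plates, 5 days after pin-tool dosing the day after seeding with one drug alone or a fixed anchor-drug dose plus five library-drug doses (not always all listed) in √10 steps.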"}, "[2]": {"test_system": "COR-L 105", "procedure,_shortened": "as §1"}, "[3]": {"test_system": "HCC-78", "procedure,_shortened": "as §1"}, "[4]": {"test_system": "NCI-H1755", "procedure,_shortened": "as §1"}, "[5]": {"test_system": "ABC-1", "procedure,_shortened": "as §1"}, "[6]": {"test_system": "NCI-H2023", "procedure,_shortened": "as §1"}, "[7]": {"test_system": "NCI-H1975", "procedure,_shortened": "as §1"}, "[8]": {"test_system": "NCI-H358", "procedure,_shortened": "as §1"}, "[9]": {"test_system": "EMC-BAC-2", "procedure,_shortened": "as §1"}, "[10]": {"test_system": "UMC-11", "procedure,_shortened": "as §1"}, "[11]": {"test_system": "EPLC-272H", "procedure,_shortened": "as §1"}, "[12]": {"test_system": "NCI-H2126", "procedure,_shortened": "as §1"}, "[13]": {"test_system": "HOP-62", "procedure,_shortened": "as §1"}, "[14]": {"test_system": "NCI-H322M", "procedure,_shortened": "as §1"}, "[15]": {"test_system": "NCI-H2085", "procedure,_shortened": "as §1"}, "[16]": {"test_system": "NCI-H3122", "procedure,_shortened": "as §1"}, "[17]": {"test_system": "CAL-12T", "procedure,_shortened": "as §1"}, "[18]": {"test_system": "LXF-289", "procedure,_shortened": "as §1"}, "[19]": {"test_system": "NCI-H1666", "procedure,_shortened": "as §1"}, "[20]": {"test_system": "NCI-H1915", "procedure,_shortened": "as §1"}}}
{"smiles": "Nc1ccn([C@@H]2O[C@H](CO)[C@@H](O)[C@@H]2O)c(=O)n1", "note": "[Cytarabine] + CS(=O)(=O)CCNCc1ccc(-c2ccc3ncnc(Nc4ccc(OCc5cccc(F)c5)c(Cl)c4)c3c2)o1 [Lapatinib] (partner 2 µM)", "values": [{"measurement": "relative viability", "setting": "[1]; first compound 0.005 µM", "result": 0.785}, {"measurement": "relative viability", "setting": "[1]; first compound 0.01581 µM", "result": 0.887}, {"measurement": "relative viability", "setting": "[1]; first compound 0.05 µM", "result": 0.693}, {"measurement": "relative viability", "setting": "[1]; first compound 0.1581 µM", "result": 0.615}, {"measurement": "relative viability", "setting": "[1]; first compound 0.5 µM", "result": 0.639}, {"measurement": "relative viability", "setting": "[2]; first compound 0.005 µM", "result": 0.299}, {"measurement": "relative viability", "setting": "[2]; first compound 0.01581 µM", "result": 0.328}, {"measurement": "relative viability", "setting": "[2]; first compound 0.05 µM", "result": 0.297}, {"measurement": "relative viability", "setting": "[2]; first compound 0.1581 µM", "result": 0.293}, {"measurement": "relative viability", "setting": "[2]; first compound 0.5 µM", "result": 0.252}, {"measurement": "relative viability", "setting": "[3]; first compound 0.005 µM", "result": 0.799}, {"measurement": "relative viability", "setting": "[3]; first compound 0.01581 µM", "result": 0.595}, {"measurement": "relative viability", "setting": "[3]; first compound 0.05 µM", "result": 0.353}, {"measurement": "relative viability", "setting": "[3]; first compound 0.1581 µM", "result": 0.308}, {"measurement": "relative viability", "setting": "[3]; first compound 0.5 µM", "result": 0.19}, {"measurement": "relative viability", "setting": "[4]; first compound 0.005 µM", "result": 0.759}, {"measurement": "relative viability", "setting": "[4]; first compound 0.01581 µM", "result": 0.973}, {"measurement": "relative viability", "setting": "[4]; first compound 0.05 µM", "result": 0.8}, {"measurement": "relative viability", "setting": "[4]; first compound 0.1581 µM", "result": 0.259}, {"measurement": "relative viability", "setting": "[4]; first compound 0.5 µM", "result": 0.271}, {"measurement": "relative viability", "setting": "[5]; first compound 0.005 µM", "result": 1.29}, {"measurement": "relative viability", "setting": "[5]; first compound 0.01581 µM", "result": 1.24}, {"measurement": "relative viability", "setting": "[5]; first compound 0.1581 µM", "result": 1.16}, {"measurement": "relative viability", "setting": "[5]; first compound 0.5 µM", "result": 1.03}, {"measurement": "relative viability", "setting": "[6]; first compound 0.005 µM", "result": 0.515}, {"measurement": "relative viability", "setting": "[6]; first compound 0.01581 µM", "result": 0.224}, {"measurement": "relative viability", "setting": "[6]; first compound 0.05 µM", "result": 0.144}, {"measurement": "relative viability", "setting": "[6]; first compound 0.1581 µM", "result": 0.0848}, {"measurement": "relative viability", "setting": "[6]; first compound 0.5 µM", "result": 0.0542}, {"measurement": "relative viability", "setting": "[7]; first compound 0.005 µM", "result": 0.644}, {"measurement": "relative viability", "setting": "[7]; first compound 0.01581 µM", "result": 1.05}, {"measurement": "relative viability", "setting": "[7]; first compound 0.05 µM", "result": 1.09}, {"measurement": "relative viability", "setting": "[7]; first compound 0.1581 µM", "result": 0.456}, {"measurement": "relative viability", "setting": "[7]; first compound 0.5 µM", "result": 0.372}, {"measurement": "relative viability", "setting": "[8]; first compound 0.005 µM", "result": 0.471}, {"measurement": "relative viability", "setting": "[8]; first compound 0.01581 µM", "result": 0.332}, {"measurement": "relative viability", "setting": "[8]; first compound 0.05 µM", "result": 0.364}, {"measurement": "relative viability", "setting": "[8]; first compound 0.1581 µM", "result": 0.199}, {"measurement": "relative viability", "setting": "[8]; first compound 0.5 µM", "result": 0.176}, {"measurement": "relative viability", "setting": "[9]; first compound 0.005 µM", "result": 0.857}, {"measurement": "relative viability", "setting": "[9]; first compound 0.01581 µM", "result": 0.85}, {"measurement": "relative viability", "setting": "[9]; first compound 0.05 µM", "result": 0.763}, {"measurement": "relative viability", "setting": "[9]; first compound 0.1581 µM", "result": 0.283}, {"measurement": "relative viability", "setting": "[9]; first compound 0.5 µM", "result": 0.287}, {"measurement": "relative viability", "setting": "[10]; first compound 0.005 µM", "result": 0.632}, {"measurement": "relative viability", "setting": "[10]; first compound 0.01581 µM", "result": 0.462}, {"measurement": "relative viability", "setting": "[10]; first compound 0.05 µM", "result": 0.434}, {"measurement": "relative viability", "setting": "[10]; first compound 0.1581 µM", "result": 0.193}, {"measurement": "relative viability", "setting": "[10]; first compound 0.5 µM", "result": 0.211}, {"measurement": "relative viability", "setting": "[11]; first compound 0.005 µM", "result": 0.717}, {"measurement": "relative viability", "setting": "[11]; first compound 0.01581 µM", "result": 0.756}, {"measurement": "relative viability", "setting": "[11]; first compound 0.05 µM", "result": 0.592}, {"measurement": "relative viability", "setting": "[11]; first compound 0.1581 µM", "result": 0.315}, {"measurement": "relative viability", "setting": "[11]; first compound 0.5 µM", "result": 0.417}, {"measurement": "relative viability", "setting": "[12]; first compound 0.005 µM", "result": 0.73}, {"measurement": "relative viability", "setting": "[12]; first compound 0.01581 µM", "result": 0.701}, {"measurement": "relative viability", "setting": "[12]; first compound 0.05 µM", "result": 0.61}, {"measurement": "relative viability", "setting": "[12]; first compound 0.1581 µM", "result": 0.516}, {"measurement": "relative viability", "setting": "[12]; first compound 0.5 µM", "result": 0.449}, {"measurement": "relative viability", "setting": "[13]; first compound 0.005 µM", "result": 0.825}, {"measurement": "relative viability", "setting": "[13]; first compound 0.01581 µM", "result": 0.821}, {"measurement": "relative viability", "setting": "[13]; first compound 0.05 µM", "result": 0.385}, {"measurement": "relative viability", "setting": "[13]; first compound 0.1581 µM", "result": 0.134}, {"measurement": "relative viability", "setting": "[13]; first compound 0.5 µM", "result": 0.0735}, {"measurement": "relative viability", "setting": "[14]; first compound 0.005 µM", "result": 0.585}, {"measurement": "relative viability", "setting": "[14]; first compound 0.01581 µM", "result": 0.609}, {"measurement": "relative viability", "setting": "[14]; first compound 0.05 µM", "result": 0.459}, {"measurement": "relative viability", "setting": "[14]; first compound 0.1581 µM", "result": 0.354}, {"measurement": "relative viability", "setting": "[14]; first compound 0.5 µM", "result": 0.348}, {"measurement": "relative viability", "setting": "[15]; first compound 0.005 µM", "result": 0.735}, {"measurement": "relative viability", "setting": "[15]; first compound 0.01581 µM", "result": 0.725}, {"measurement": "relative viability", "setting": "[15]; first compound 0.05 µM", "result": 0.666}, {"measurement": "relative viability", "setting": "[15]; first compound 0.1581 µM", "result": 0.622}, {"measurement": "relative viability", "setting": "[15]; first compound 0.5 µM", "result": 0.374}, {"measurement": "relative viability", "setting": "[16]; first compound 0.005 µM", "result": 1.12}, {"measurement": "relative viability", "setting": "[16]; first compound 0.01581 µM", "result": 0.912}, {"measurement": "relative viability", "setting": "[16]; first compound 0.05 µM", "result": 0.91}, {"measurement": "relative viability", "setting": "[16]; first compound 0.1581 µM", "result": 0.676}, {"measurement": "relative viability", "setting": "[16]; first compound 0.5 µM", "result": 0.551}, {"measurement": "relative viability", "setting": "[17]; first compound 0.005 µM", "result": 0.848}, {"measurement": "relative viability", "setting": "[17]; first compound 0.01581 µM", "result": 0.629}, {"measurement": "relative viability", "setting": "[17]; first compound 0.05 µM", "result": 0.542}, {"measurement": "relative viability", "setting": "[17]; first compound 0.1581 µM", "result": 0.388}, {"measurement": "relative viability", "setting": "[17]; first compound 0.5 µM", "result": 0.269}, {"measurement": "relative viability", "setting": "[18]; first compound 0.005 µM", "result": 0.806}, {"measurement": "relative viability", "setting": "[18]; first compound 0.01581 µM", "result": 0.851}, {"measurement": "relative viability", "setting": "[18]; first compound 0.05 µM", "result": 0.809}, {"measurement": "relative viability", "setting": "[18]; first compound 0.1581 µM", "result": 0.429}, {"measurement": "relative viability", "setting": "[18]; first compound 0.5 µM", "result": 0.339}, {"measurement": "relative viability", "setting": "[19]; first compound 0.005 µM", "result": 0.455}, {"measurement": "relative viability", "setting": "[19]; first compound 0.01581 µM", "result": 0.549}, {"measurement": "relative viability", "setting": "[19]; first compound 0.05 µM", "result": 0.378}, {"measurement": "relative viability", "setting": "[19]; first compound 0.1581 µM", "result": 0.308}, {"measurement": "relative viability", "setting": "[19]; first compound 0.5 µM", "result": 0.262}, {"measurement": "relative viability", "setting": "[20]; first compound 0.005 µM", "result": 0.868}, {"measurement": "relative viability", "setting": "[20]; first compound 0.01581 µM", "result": 0.955}, {"measurement": "relative viability", "setting": "[20]; first compound 0.05 µM", "result": 0.848}, {"measurement": "relative viability", "setting": "[20]; first compound 0.1581 µM", "result": 0.393}, {"measurement": "relative viability", "setting": "[20]; first compound 0.5 µM", "result": 0.257}]}
